Reference: patent US10344025B2, “GLS1 inhibitors for treating disease” (Board of Regents, The University of Texas System, priority 2014, dated 2019)

How the values were obtained:
[1] = target: purified recombinant human GAC (GLS1) (Homo sapiens (Human), UniProt O94925); assay: GLS1 Enzymatic Activity Assay (dual-coupled enzymatic assay, resorufin/Amplex UltraRed readout); type: biochemical;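 note: glutamate from GAC coupled via glutamate oxidase and peroxidase to resorufin, read as fluorescence (ex 530, em 590 nm) kinetically or at 20 min, four-parameter logistic IC50 fit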
A549 cells = assay: Proliferation Assay (A549 viability, Cell Titer Fluor, 72 hours); type: cell-based; conditions: Homo sapiens
Procedure, shortened: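 A549 cells seeded at 1000 cells/well, rested 24 h, then exposed to compound in 0.5% DMSO for 72 h at 37 °C. Viability read by Cell Titer Fluor fluorescence; IC50 from four-parameter logistic fit.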

Sequence of purified recombinant human GAC (GLS1) (O94925 other isoform, or with tags, fused parts or gaps): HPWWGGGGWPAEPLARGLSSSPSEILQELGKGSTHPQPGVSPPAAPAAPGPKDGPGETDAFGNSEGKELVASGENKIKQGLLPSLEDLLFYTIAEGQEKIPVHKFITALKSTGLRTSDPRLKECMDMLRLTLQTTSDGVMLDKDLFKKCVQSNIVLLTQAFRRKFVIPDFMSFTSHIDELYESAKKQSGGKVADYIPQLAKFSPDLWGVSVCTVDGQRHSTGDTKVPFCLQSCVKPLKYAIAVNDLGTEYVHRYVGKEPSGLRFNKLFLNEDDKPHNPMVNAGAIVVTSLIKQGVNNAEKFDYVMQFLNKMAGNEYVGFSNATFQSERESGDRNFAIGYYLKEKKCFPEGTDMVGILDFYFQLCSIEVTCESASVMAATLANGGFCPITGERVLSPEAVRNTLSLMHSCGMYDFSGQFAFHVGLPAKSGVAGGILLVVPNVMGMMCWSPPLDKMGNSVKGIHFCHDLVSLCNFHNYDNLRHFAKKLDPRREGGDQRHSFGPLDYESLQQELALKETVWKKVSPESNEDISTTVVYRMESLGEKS

| SMILES | IC50 [1] | EC50 (A549 cells; A549, 72 h) | EC50 (A549 cells) |
| --- | --- | --- | --- |
| O=C(NCc1cccc(C(F)(F)F)c1)c1cn(CCCCn2cc(C(=O)NCc3cc(C(F)(F)F)ccn3)nn2)nn1 [Example 97, 1-{4-[4-({[3-(trifluoromethyl)phenyl]methyl}carbamoyl)-1H-1,2,3-triazol-1-yl]butyl}-N-{[4-(trifluoromethyl)pyridin-2-yl]methyl}-1H-1,2,3-triazole-4-carboxamide] | < 100 nM | < 100 nM |  |
| O=C(Cc1cccc(OC(F)(F)F)c1)Nc1nnc(CCC(F)Cn2cc(C(=O)NCC(F)(F)F)nn2)s1 (stereo not shown) [Example 536, 1-[2-fluoro-4-(5-{2-[3-(trifluoromethoxy)phenyl]acetamido}-1,3,4-thiadiazol-2-yl)butyl]-N-(2,2,2-trifluoroethyl)-1H-1,2,3-triazole-4-carboxamide] | < 100 nM | 100 to 500 nM |  |
| CC1(C)Oc2ccc(CNC(=O)c3cn(CCCCn4cc(C(=O)NCc5cc(C(F)(F)F)ccn5)nn4)nn3)cc2O1 [Example 137, 1-[4-(4-{[(2,2-dimethyl-2H-1,3-benzodioxol-5-yl)methyl]carbamoyl}-1H-1,2,3-triazol-1-yl)butyl]-N-{[4-(trifluoromethyl)pyridin-2-yl]methyl}-1H-1,2,3-triazole-4-carboxamide] | < 100 nM | < 100 nM |  |
| NC(=O)c1cn(CC(F)CCc2nnc(NC(=O)Cc3cccc(OC(F)(F)F)c3)s2)nn1 (stereo not shown) [Example 530, 1-[2-fluoro-4-(5-{2-[3-(trifluoromethoxy)phenyl]acetamido}-1,3,4-thiadiazol-2-yl)butyl]-1H-1,2,3-triazole-4-carboxamide] | < 100 nM | 500 to 5000 nM |  |
| CC(C)(C)OC(=O)N1CC(CNC(=O)c2nnc(CCCCn3cc(C(=O)NCc4cccc(OC(F)(F)F)c4)nn3)s2)C1 [Example 73, tert-butyl 3-{[(5-{4-[4-({[3-(trifluoromethoxy)phenyl]methyl}carbamoyl)-1H-1,2,3-triazol-1-yl]butyl}-1,3,4-thiadiazol-2-yl)formamido]methyl}azetidine-1-carboxylate] | < 100 nM | < 100 nM |  |
| Cc1ccc(CNC(=O)c2cn(CC(F)CCn3cc(C(=O)NCc4cccc(OC(F)(F)F)c4)nn3)nn2)cn1 (stereo not shown) [Example 430, 1-{2-fluoro-4-[4-({[3-(trifluoromethoxy)phenyl]methyl}carbamoyl)-1H-1,2,3-triazol-1-yl]butyl}-N-[(6-methylpyridin-3-yl)methyl]-1H-1,2,3-triazole-4-carboxamide] | < 100 nM | < 100 nM |  |
| CNC(=O)c1cn(CC(F)CCc2ccc(NC(=O)Cc3cc(OCC(F)(F)F)ccn3)nn2)nn1 (stereo not shown) [Example 262, 1-(2-Fluoro-4-(6-(2-(4-(2,2,2-trifluoroethoxy)pyridin-2-yl)acetamido)pyridazin-3-yl)butyl)-N-methyl-1H-1,2,3-triazole-4-carboxamide] | < 100 nM |  | < 100 nM |
| O=C(NCc1cc(C(F)(F)F)ccn1)c1cn(CCCCn2cc(C(=O)N[C@@H](CO)c3ccccc3)nn2)nn1 [Example 100, 1-[4-(4-{[(1R)-2-hydroxy-1-phenylethyl]carbamoyl}-1H-1,2,3-triazol-1-yl)butyl]-N-{[4-(trifluoromethyl)pyridin-2-yl]methyl}-1H-1,2,3-triazole-4-carboxamide] | 500 to 5000 nM | > 5000 nM |  |
| Cc1ccc(CNC(=O)c2cn(CCC(F)Cn3cc(NC(=O)CN4CC(F)(F)C4)nn3)nn2)cn1 (stereo not shown) [Example 393, 1-(4-{4-[2-(3,3-difluoroazetidin-1-yl)acetamido]-1H-1,2,3-triazol-1-yl}-3-fluorobutyl)-N-[(6-methylpyridin-3-yl)methyl]-1H-1,2,3-triazole-4-carboxamide] | 500 to 5000 nM | 500 to 5000 nM |  |
| O=C(Cc1ccccn1)Nc1nnc(CC[C@H](F)Cn2cc(C(=O)NCc3cc(C(F)(F)F)ccn3)nn2)s1 [Example 238, (S)-1-(2-fluoro-4-(5-(2-(pyridin-2-yl)acetamido)-1,3,4-thiadiazol-2-yl)butyl)-N-((4-(trifluoromethyl)pyridin-2-yl)methyl)-1H-1,2,3-triazole-4-carboxamide] | < 100 nM | 100 to 500 nM |  |
| CNC(=O)c1cn(CC(F)CCc2nnc(C(=O)NCc3cncc(C(F)(F)F)c3)s2)nn1 (stereo not shown) [Example 501, 5-{3-fluoro-4-[4-(methylcarbamoyl)-1H-1,2,3-triazol-1-yl]butyl}-N-{[- (trifluoromethyl)pyridin-3-yl]methyl}-1,3,4-thiadiazole-2-carboxamide] | 100 to 500 nM | 100 to 500 nM |  |
| CNC(=O)c1cn(CC(F)CCc2nnc(NC(=O)Cc3ncc(Cl)cc3F)s2)nn1 (stereo not shown) [Example 564, 1-(4-{5-[2-(5-chloro-3-fluoropyridin-2-yl)acetamido]-1,3,4-thiadiazol-2-yl}-2-fluorobutyl)-N-methyl-1H-1,2,3-triazole-4-carboxamide] | < 100 nM | 500 to 5000 nM |  |
| O=C(NCc1ccc(C(F)(F)F)cn1)c1cn(CC(F)CCc2nnc(C(=O)NCc3cccc(C(F)(F)F)n3)s2)nn1 (stereo not shown) [Example 492, 5-{3-fluoro-4-[4-({[5-(trifluoromethyl)pyridin-2-yl]methyl}carbamoyl)-1H-1,2,3-triazol-1-yl]butyl}-N-{[6-(trifluoromethyl)pyridin-2-yl]methyl}-1,3,4-thiadiazole-2-carboxamide] | < 100 nM | 100 to 500 nM |  |
| Cc1ccnc(CNC(=O)c2cn(CCC(F)Cn3cc(C(=O)NCc4cc(C(F)(F)F)ccn4)nn3)nn2)c1 (stereo not shown) [Example 159, 1-[2-fluoro-4-(4-{[(4-methylpyridin-2-yl)methyl]carbamoyl}-1H-1,2,3-triazol-1-yl)butyl]-N-{[4-(trifluoromethyl)pyridin-2-yl]methyl}-1H-1,2,3-triazole-4-carboxamide] | < 100 nM | 100 to 500 nM |  |
| O=C(CN1CCC(F)(F)CC1)Nc1cn(CCCCn2cc(C(=O)NCc3cc(OC(F)(F)F)ccc3F)nn2)nn1 [Example 360, 1-(4-{4-[2-(4,4-difluoropiperidin-1-yl)acetamido]-1H-1,2,3-triazol-1-yl}butyl)-N-{[2-fluoro-5-(trifluoromethoxy)phenyl]methyl}-1H-1,2,3-triazole-4-carboxamide] | < 100 nM | < 100 nM |  |
| O=C(NCc1ccnnc1)c1cn(CCCCn2cc(C(=O)NCc3cccc(OC(F)(F)F)c3)nn2)nn1 [Example 127, 1-(4-{4-[(pyridazin-4-ylmethyl)carbamoyl]-1H-1,2,3-triazol-1-yl}butyl)-N-{[3-(trifluoromethoxy)phenyl]methyl}-1H-1,2,3-triazole-4-carboxamide] | 100 to 500 nM | 500 to 5000 nM |  |
| CNC(=O)c1cn(CCC(F)Cn2cc(NC(=O)Cc3cccc(OC(F)(F)F)c3)nn2)nn1 (stereo not shown) [Example 524, 1-[3-fluoro-4-(4-{2-[3-(trifluoromethoxy)phenyl]acetamido}-1H-1,2,3-triazol-1-yl)butyl]-N-methyl-1H-1,2,3-triazole-4-carboxamide] | < 100 nM | 100 to 500 nM |  |
| O=C(Cc1cccc(OC(F)(F)F)c1)Nc1ccc(CCCCc2nnc(C(=O)NCC3COC3)s2)nn1 [Example 33, N-(oxetan-3-ylmethyl)-5-[4-(6-{2-[3-(trifluoromethoxy)phenyl]acetamido}pyridazin-3-yl)butyl]-1,3,4-thiadiazole-2-carboxamide] | < 100 nM | < 100 nM |  |
| O=C(CN1CC(F)C1)Nc1cn(CC(F)CCn2cc(C(=O)NCc3ncccc3F)nn2)nn1 (stereo not shown) [Example 409, 1-(3-fluoro-4-{4-[2-(3-fluoroazetidin-1-yl)acetamido]-1H-1,2,3-triazol-1-yl}butyl)-N-[(3-fluoropyridin-2-yl)methyl]-1H-1,2,3-triazole-4-carboxamide] | 500 to 5000 nM | > 5000 nM |  |
| CNC(=O)c1cn(CCC(F)Cn2cc(C(=O)NCc3ccc(C(F)(F)F)cn3)nn2)nn1 (stereo not shown) [Example 184, 1-{3-fluoro-4-[4-({[5-(trifluoromethyl)pyridin-2-yl]methyl}carbamoyl)-1H-1,2,3-triazol-1-yl]butyl}-N-methyl-1H-1,2,3-triazole-4-carboxamide] | 500 to 5000 nM | > 5000 nM |  |
| O=C(NCc1cccc(F)c1)c1cn(CCCCn2cc(C(=O)NCc3cc(C(F)(F)F)ccn3)nn2)nn1 [Example 112, 1-[4-(4-{[(3-fluorophenyl)methyl]carbamoyl}-1H-1,2,3-triazol-1-yl)butyl]-N-{[4-(trifluoromethyl)pyridin-2-yl]methyl}-1H-1,2,3-triazole-4-carboxamide] | 100 to 500 nM | 100 to 500 nM |  |
| O=C(CN1CC(F)(F)C1)Nc1cn(CC(F)CCn2cc(C(=O)NCc3cccc(OC(F)(F)F)c3)nn2)nn1 (stereo not shown) [Example 391, 1-(4-{4-[2-(3,3-difluoroazetidin-1-yl)acetamido]-1H-1,2,3-triazol-1-yl}-3-fluorobutyl)-N-{[3-(trifluoromethoxy)phenyl]methyl}-1H-1,2,3-triazole-4-carboxamide] | < 100 nM | 100 to 500 nM |  |
| O=C(NCc1cc(C(F)(F)F)ccn1)c1cn(CCCCn2cc(C(=O)NCC3COC3)nn2)nn1 [Example 87] | 500 to 5000 nM | > 5000 nM |  |
| Cc1ccc(CNC(=O)c2cn(CCCCn3cc(NC(=O)Cc4cc(Cl)ccc4F)nn3)nn2)cn1 [Example 388, 1-(4-{4-[2-(5-chloro-2-fluorophenyl)acetamido]-1H-1,2,3-triazol-1-yl}butyl)-N-[(6-methylpyridin-3-yl)methyl]-1H-1,2,3-triazole-4-carboxamide] | < 100 nM | 100 to 500 nM |  |
| O=C(NCc1cc(C(F)(F)F)ccn1)c1cn(CC(F)CCc2nnc(C(=O)NCc3ccc(C(F)(F)F)cn3)s2)nn1 (stereo not shown) [Example 489, 5-{3-fluoro-4-[4-({[4-(trifluoromethyl)pyridin-2-yl]methyl}carbamoyl)-1H-1,2,3-triazol-1-yl]butyl}-N-{[5-(trifluoromethyl)pyridin-2-yl]methyl}-1,3,4-thiadiazole-2-carboxamide] | < 100 nM | < 100 nM |  |
| O=C(Nc1nnc(CCC(F)Cn2cc(C(=O)NCc3cc(OC(F)(F)F)ccc3F)nn2)s1)c1cccnc1 (stereo not shown) [Example 577, N-(5-(3-fluoro-4-(4-((2-fluoro-5-(trifluoromethoxy)benzyl)carbamoyl)-1H-1,2,3-triazol-1-yl)butyl)-1,3,4-thiadiazol-2-yl)nicotinamide] | < 100 nM | 500 to 5000 nM |  |
